A value given as a limit tells only on which side of the number the result lay.

The source of these data is PMC4229119, “Alzheimer's Therapeutics Targeting Amyloid Beta 1–42 Oligomers II: Sigma-2/PGRMC1 Receptors Mediate Abeta 42 Oligomer Binding and Synaptotoxicity” (PLoS ONE, 2014).

One series concerns the target T1, sigma-2/PGRMC1 receptor (Homo sapiens, UniProt Q5BJF2).
T1 construct: host or cells: Jurkat cell membranes
The experiment in a line: Sigma-2 radioligand binding ([3H]DTG competition, Jurkat cell membranes; Cerep 0148). Conditions: homogenates of a human T cell line; mean ± S.E.M.; read-out: Ki, displacement of selective radioligand [3H]-DTG from sigma-2/PGRMC1 receptor. The procedure: Radioligand competition assays were performed in membranes from Jurkat cells using 5 nM [^3H]1,3-di(2-tolyl) guanidine in the presence of 1 µM (+)-pentazocine with 10 µM haloperidol to define non-specific binding.

Series [1] deals with T2, sigma-2/PGRMC1 receptors in human brain (Homo sapiens, UniProt Q5BJF2).
T2 construct: serial sections of unfixed frozen cognitively normal elderly human frontal cortex; from tissue; host or cells: human frontal cortex, unfixed frozen sections
Description: Quantitative autoradiography, radioligand displacement from human frontal cortex sections. Conditions: serial sections of unfixed frozen cognitively normal elderly human frontal cortex; 10-10,000 nM compound; N = 4; read-out: Ki at the [125I]RHM-1 binding site, human frontal cortex. (In general: Loss of bound radioactivity is the signal in a displacement assay; it reports binding, not function.)
Description: Quantitative autoradiography studies on frozen unfixed serial tissue sections from normal (N = 4) or Alzheimer's disease (N = 4) postmortem patients' neocortex were conducted and quantified according to previously published procedures [40]. [^3H](+) pentazocine was used as the radioligand for sigma-1 receptors and [^125I]RHM-1 (American Radiolabelled Chemicals, Inc.) or [^3H]DTG (1,3-Di-(2-tolyl)guanidine (Perkin Elmer) in the presence of 1 µM (+) pentazocine for sigma-2 receptors [32]. Human brain samples for these studies were obtained with written consent as previously published [40].

Series [2] concerns caspase-3/7. The experiment in a line: Caspase-3/7 activation in primary hippocampal/cortical cultures. Conditions: for activation of caspase-3/7: primary hippocampal/cortical cultures. The series is classed as cell-based, rat. As to the method: (§1) Little is known about the functional pharmacology of ligands for the sigma-2/PGRMC1 receptor. […] Finally, we treated hippocampal and cortical cultures with ascending concentrations of SV119 to induce caspase activation, in the presence of 40 µM of each of the sigma-2/PGRMC1 antagonists CT0109, CT0093 and RHM-1 ( Fig. 8E ).

The test system of series [3] is caspase-3/7. Description: Caspase-3/7 activation in SKOV-3 tumor cell line. The series is classed as cell-based, human.
Series [4] has as its system primary hippocampal/cortical cultures. Description: Cell death in mature primary neuronal cultures. In kind it is cell-based, rat.
The subject of series [5] is SKOV-3 human ovarian cancer cells. The experiment in a line: Cell death in SKOV-3 human ovarian cancer cells. In kind it is cell-based.
Series [6] relates to caspase-3/7. The experiment in a line: SV119-induced caspase-3/7 activation in hippocampal and cortical cultures, co-treatment with antagonists. The series is classed as cell-based, rat. Conditions: for block of the activation of caspase-3/7 by SV119: 40 µM antagonist, ascending concentrations of SV119, hippocampal and cortical cultures. The procedure: as §1
In the next series the target is T3, Sigma-1 (Homo sapiens, UniProt Q99720).
T3 construct: purchased Cerep/Eurofins, Inc. 0889
Description: Cerep panel: Sigma-1 radioligand binding. As to conditions: Cerep 0889. As to the method:
(§2) Active CogRx molecules were counterscreened for activity at 100 central nervous system receptors and enzymes (including those involved in neurotransmission and synaptic plasticity) in industry-standard assays measuring radioligand binding displacement and signaling activity (assays performed at Cerep/Eurofins, Inc., Table S1). […] To determine if these compounds were capable of displacing binding to sigma-2/PGRMC1 receptors in human brain, CT0093 and CT0109 were added in increasing concentrations to serial sections of unfixed frozen cognitively normal elderly human frontal cortex in the presence of a specific radioligand for sigma-2/PGRMC1, ^125I-RHM-4 [31] ( Fig. 1 B–D ).

A further series deals with T4, mu opioid (Homo sapiens, UniProt P35372).
T4 construct: purchased Cerep/Eurofins, Inc. 0118
Description: Cerep panel: mu opioid radioligand binding. As to conditions: Cerep 0118. As to the method: as §2

A further series has as its target Na^+ Channel (site2). Description: Cerep panel: Na+ Channel (site2) radioligand binding. As to conditions: Cerep 0169. As to the method: as §2
The next series has as its target T5, Dopamine 3 (Homo sapiens, UniProt P35462).
T5 construct: purchased Cerep/Eurofins, Inc
The experiment in a line: Cerep panel: Dopamine 3 agonist activity. The series is classed as cell-based. As to conditions: Cerep 0683. As to the method:
as §2

Series [7] has as its system mixed cultures of hippocampal plus cortical neurons and glia. The arrangement: method as in PMID 25390368. Conditions: cited from earlier work.
The next series concerns synapses. Also on record: method as in PMID 25390368. As to conditions: cited from earlier work.
The test system of series [8] is mouse models of Alzheimer's disease. The arrangement: method as in PMID 25390368. As to conditions: cited from earlier work.
The target of series [9] is hippocampal and cortical neurons. The experiment in a line: Abeta binding assay (Abeta oligomer binding to synaptic puncta of cultured neurons). The series is classed as cell-based, rat. As to the method: To assess the ability of test compounds to prevent the binding of Abeta oligomers, cultures were treated with compounds for 30 minutes, followed by synthetic Abeta 1–42 oligomer preparation treatment for 60 min (total Abeta concentration 0.5 µM, equivalent to Kd concentration). Alternatively, displacement of prebound oligomers was evaluated by adding oligomers 60 min prior to the addition of compounds, followed by additional 30 minutes incubation. […]
Neuronal cultures were treated with either a mixture of 4 siRNAs targeted against PGRMC1 (GUCUAGGUCUUGGAUAAUA, GGUUUUACCUCAAAUCAGA, UUAGAAUGCAUGAUGUGUU, CUUCUAUCUGUAGUUAAAA, catalog number A-095365-00-0050) or a non-targeting sequence (UGGUUUACAUGUUUUCCUA, catalog number D-001910-03-50, Accell, ThermoFisher). siRNA were resuspended to 100 µM in RNase free water, shaken for 1.5 hours at 37°C, diluted in media and applied to cells at 1 or 2 uM for 48 hours prior to addition of Abeta oligomers for 30 minutes. Cultures were then fixed and co-immunolabeled with 6E10 antibody to detect Abeta and antibody to detect PGRMC1 as described above and analyzed via automated image processing as described above. For PGRMC1 measurements, total intensity in cell bodies was measured. […]

A further series relates to sigma-2/PGRMC1. The experiment in a line: Immunofluorescent sigma-2/PGRMC1 expression in neuronal cultures. In kind it is cell-based, rat. As to conditions: for increase of total intensity of sigma-2/PGRMC1 expression in the cell body: 400 nM Abeta oligomers, pooled neurons and glia, vs vehicle. As to the method: To assess the ability of test compounds to prevent the binding of Abeta oligomers, cultures were treated with compounds for 30 minutes, followed by synthetic Abeta 1–42 oligomer preparation treatment for 60 min (total Abeta concentration 0.5 µM, equivalent to Kd concentration). Alternatively, displacement of prebound oligomers was evaluated by adding oligomers 60 min prior to the addition of compounds, followed by additional 30 minutes incubation. Cells were fixed with 3.75% formaldehyde for 15 min, blocked with 5% normal goat serum and 0.5% Triton X-100 and incubated with primary antibodies for Abeta (1 µg/ml 6E10 or 4G8, Covance catalog numbers SIG-39320 and SIG-39330, respectively), MAP-2 (0.2 µg/ml Chemicon), Synaptophysin-1 (1 µg/ml, Anaspec), glial fibrillary acidic protein (GFAP, 1 µg/ml, Thermo-Fisher) and fluorescently labeled secondary antibodies (2 µg/ml, Invitrogen). Images were acquired on a Cellomics VTi automated microscope with a 20X, 0.75 NA objective and analyzed using ThermoFisher/Cellomics Neuronal Profiling bioapplication set to measure punctate labeling of Abeta and synaptophysin-1 along MAP-2 labeled neurites. For each replicate experiment, at least 100 neurons were sampled from 4 replicate wells for each experimental condition (400 to 500 neurons per experimental condition). […]
Neuronal cultures were treated with either a mixture of 4 siRNAs targeted against PGRMC1 (GUCUAGGUCUUGGAUAAUA, GGUUUUACCUCAAAUCAGA, UUAGAAUGCAUGAUGUGUU, CUUCUAUCUGUAGUUAAAA, catalog number A-095365-00-0050) or a non-targeting sequence (UGGUUUACAUGUUUUCCUA, catalog number D-001910-03-50, Accell, ThermoFisher). siRNA were resuspended to 100 µM in RNase free water, shaken for 1.5 hours at 37°C, diluted in media and applied to cells at 1 or 2 uM for 48 hours prior to addition of Abeta oligomers for 30 minutes. Cultures were then fixed and co-immunolabeled with 6E10 antibody to detect Abeta and antibody to detect PGRMC1 as described above and analyzed via automated image processing as described above. For PGRMC1 measurements, total intensity in cell bodies was measured.

T2 sequence (Q5BJF2 whole entry): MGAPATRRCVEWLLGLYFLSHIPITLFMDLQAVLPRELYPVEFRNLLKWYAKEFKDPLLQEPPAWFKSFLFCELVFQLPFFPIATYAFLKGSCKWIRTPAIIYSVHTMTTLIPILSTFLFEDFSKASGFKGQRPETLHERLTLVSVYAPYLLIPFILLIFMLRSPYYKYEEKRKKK
T1 sequence (Q5BJF2 whole entry): as above
T4 sequence (P35372 whole entry): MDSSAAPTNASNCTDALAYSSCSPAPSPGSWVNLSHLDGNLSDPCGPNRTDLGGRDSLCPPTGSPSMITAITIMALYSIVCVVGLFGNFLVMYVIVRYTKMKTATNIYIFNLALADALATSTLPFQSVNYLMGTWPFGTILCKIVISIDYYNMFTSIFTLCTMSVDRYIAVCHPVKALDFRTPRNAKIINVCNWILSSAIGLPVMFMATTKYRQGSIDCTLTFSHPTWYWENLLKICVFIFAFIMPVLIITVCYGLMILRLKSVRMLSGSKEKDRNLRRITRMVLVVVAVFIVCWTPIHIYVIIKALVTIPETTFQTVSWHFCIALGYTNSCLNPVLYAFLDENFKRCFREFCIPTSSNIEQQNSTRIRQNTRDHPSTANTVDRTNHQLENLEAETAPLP
T5 sequence (P35462 whole entry): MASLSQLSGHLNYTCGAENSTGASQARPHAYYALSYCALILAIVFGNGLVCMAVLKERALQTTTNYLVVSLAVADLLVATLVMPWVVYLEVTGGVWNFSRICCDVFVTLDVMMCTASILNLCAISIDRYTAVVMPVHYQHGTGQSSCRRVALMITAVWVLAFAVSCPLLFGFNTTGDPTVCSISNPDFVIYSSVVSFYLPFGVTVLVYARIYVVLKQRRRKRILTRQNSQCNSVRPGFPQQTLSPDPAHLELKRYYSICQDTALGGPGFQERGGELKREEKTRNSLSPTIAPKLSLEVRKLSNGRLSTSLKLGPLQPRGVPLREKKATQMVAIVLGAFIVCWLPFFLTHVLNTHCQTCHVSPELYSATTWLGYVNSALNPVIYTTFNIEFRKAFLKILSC
T3 sequence (Q99720 whole entry): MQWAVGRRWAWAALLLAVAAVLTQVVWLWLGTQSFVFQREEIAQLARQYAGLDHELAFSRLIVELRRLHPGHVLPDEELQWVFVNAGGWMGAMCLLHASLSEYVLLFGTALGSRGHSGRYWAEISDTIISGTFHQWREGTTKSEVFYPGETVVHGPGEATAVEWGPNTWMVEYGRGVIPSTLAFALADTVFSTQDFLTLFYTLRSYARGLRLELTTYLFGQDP

As a reminder, the EC50 is the concentration giving half of the maximal effect. Read a high EC50 as weaker potency. For the molecule `COc1cc(CCC(C)NCc2ccc(C(F)(F)F)cc2)ccc1O` (centres unmarked) [CT0109], the Ki on sigma-2/PGRMC1 receptor was 9 ± 7 nM; in series [1] it was 57 ± 23 nM; on Sigma-1 it was 500 nM; at mu opioid, 1700 nM; on Na^+ Channel (site2) it was 2000 nM. The “activation of caspase-3/7” value in the series on caspase-3/7 [2] and in the series on caspase-3/7 [3] was “did not” in each case. Moreover, the “concentrations at which cell viability is affected” value in [4] and in series [5] was more than 100 µM in each case. Besides, the “block of the activation of caspase-3/7 by SV119” value in the series with caspase-3/7 [6] is reported as “significantly blocked the activation of caspase-3/7 by SV119”. Also, at Dopamine 3, it took 4100 nM to reach a half-maximal effect (EC50). Also, in series [7], the “reversal of Abeta oligomer-mediated trafficking deficits” value is “reverse Abeta oligomer-mediated trafficking deficits”. Also, in the series with synapses, the restoration of synapses entry was “restore synapses to normal”. The “restoration of cognitive function” value in series [8] is “restore cognitive function”.
As to `COc1cc2c(cc1OC)CN(CCCCNC(=O)c1cc(C)ccc1OC)CC2` [RHM-1], the “activation of caspase-3/7” value in the series on caspase-3/7 [2] and with caspase-3/7 [3] was “did not” throughout. Further, the “concentrations at which cell viability is affected” value in series [4] and in [5] was more than 100 µM throughout. In addition, the “block of the activation of caspase-3/7 by SV119” value in the series with caspase-3/7 [6] is “did not”.
On to `COc1ccc(C)cc1NC(=O)OC1C[C@H]2CCC[C@@H](C1)N2CCCCCCN` (some centres unmarked) [SV-119], for which the dose-dependent cell death result in [4] and in series [5] was “caused dose-dependent cell death” throughout. In the series on caspase-3/7 [6] (20 to 80 µM for 24 hours, hippocampal and cortical cells, p<0.05 vs control), the “activation of caspase 3/7” value is on record as “induced the activation of caspase 3/7”.
Take `Fc1ccc(-n2cc(CCCCN3CCC4(CC3)OCc3ccccc34)c3ccccc32)cc1` [siramesine]: the “activation of caspase-3/7” value with caspase-3/7 [2] and in the series with caspase-3/7 [3] was “activated caspase-3/7” each time. Besides, the dose-dependent cell death result in series [4] and in [5] was “caused dose-dependent cell death” throughout.
In general, Kd refers to the equilibrium constant for the complex coming apart. For the molecule “Abeta oligomers: synthetic Abeta 1–42 oligomer preparation”, the oligomer-induced caspase activation result in the series on caspase-3/7 [2] (21 DIV primary hippocampal and cortical neuronal cultures, 3–48 hours, up to 28 uM) was “unable to detect oligomer-induced caspase activation”. In series [9] (specific and saturable binding, read-out: Kd, binding to a single receptor site on neuronal synaptic puncta), the Kd was found to be 518 ± 41 nM. Besides, the entries for the “increase of total intensity of sigma-2/PGRMC1 expression in the cell body” value in the series on sigma-2/PGRMC1 (24 hours) and in the series on sigma-2/PGRMC1 (48 hours) were 13% and 28%, respectively.
Turning to “Non-targeting siRNA: non-targeting sequence UGGUUUACAUGUUUUCCUA, catalog number D-001910-03-50 (further chemistry not given here) [reference compound]”, the “reduction in Abeta oligomer binding” value in [9] (siRNA 1 or 2 µM, 48 hours, then Abeta oligomers 30 minutes, vs untreated cultures) is “has no effect”. Besides, the “reduction in immunocytochemically detectable sigma-2/PGRMC1 protein in neuronal cell body and synaptic puncta” value in the series with sigma-2/PGRMC1 (siRNA 1 or 2 µM, 48 hours, vs untreated cultures) is reported as “has no effect”.
